row,SMILES,melting point [°C]
1,CCCC1=C(C(=O)OCC)C(c2ccccc2[N+](=O)[O-])c2c[nH]nc2N1 (stereo unspecified),218
2,O=C(O)Cc1ccc(CC2CCCCC2=O)cc1 (stereo unspecified),71.5 to 72.5
3,ON=CCc1ccccc1,90 to 94
4,CC(C)CNC(=O)c1cc([N+](=O)[O-])cc([N+](=O)[O-])c1,149 to 155
5,Cc1ccccc1C1CCN(CCc2c[nH]c3ccccc23)CC1,111 to 112
6,CN(C)C=CC(=O)c1cccc(C(F)(F)F)c1,60.5 to 62
7,Cn1ncc(N)c1NCCO,94 to 97
8,O=C(O)COc1ccc([N+](=O)[O-])c(C(F)(F)F)c1,92 to 95
9,COc1cc(C(=S)N2CCNCC2)cc(OC)c1OC,116 to 118
10,CCOC(=O)c1cn([C@@H](CSc2cccc(Cl)c2Cl)[C@H](C)O)cn1,141 to 143
11,CCCCCCCCCCCCCCCCCCOc1cc(OCCCOc2ccc(C(C)(C)C)cc2)cc(N(CC(=O)O)CC(=O)O)c1,99 to 101
12,OC(CNC1=NCCN1)c1ccc(Cl)c(Cl)c1 (stereo unspecified),148
13,O=C(O)c1cc(F)c(-n2cccc2)cc1F,196 to 198
14,CC1(C)OC(=O)Nc2c(Br)cc(-c3ccc(F)c(Cl)c3)cc21,194 to 195
15,CC(C)N1CCC(N2CCN(CCCN3CCOCC3)C2=C(C#N)C#N)CC1,109 to 110
16,CS(=O)(=O)Nc1cccc(N=C2NCCN2)c1,229 to 230
17,O=C(Nc1ccccc1)NN1CCN(CCc2c[nH]c3ccccc23)CC1,168 to 171
18,Cc1cnc(N2CCN(CC[C@H]3CC[C@H](NC(=O)CC4CCOCC4)CC3)CC2)c2ccoc12,206
19,CC1CC2=C(CCC(O)C2)C2CCC3(C)C(CO)CCC3C12 (stereo unspecified),64 to 70
20,CC(=O)OCc1cc([N+](=O)[O-])ccc1C,52 to 53.5
21,CCOC1=NS(=O)C(C(N)=O)=C1Br (stereo unspecified),168 to 172
22,CCCn1c(COCC)nc2c(N)nc3cc(OC4CCN(C(=O)OC(C)(C)C)CC4)ccc3c21,194 to 195
23,CCOC(=O)c1csnc1-c1cccc([N+](=O)[O-])c1,132 to 136

# Now from value to compound:
row,melting point [°C],SMILES
1,43 to 44,COc1ccc(CCN2C=CC=C3C2=Nc2cc(C(F)(F)F)ccc2S(=O)(=O)N3C)cc1
2,225 to 226,O=C1c2ccccc2C(=O)N1CCc1c[nH]c2ccc(CNS(=O)(=O)c3ccccc3)cc12
3,96,COc1ccccc1C(=O)N(C)Cc1cccc(-c2ccc(CC3SC(=O)NC3=O)cc2)c1 (stereo unspecified)
4,186 to 188,Cc1cc([N+](=O)[O-])ccc1NC(=O)C1=C(O)N(C)S(=O)(=O)c2cscc21
5,236 to 237,COC(=O)Nc1ccccc1C(=O)Nc1nnn[nH]1
6,125 to 127,O=C(NC(Cc1ccccc1)C(=O)O)c1cc2cc(F)ccc2[nH]1 (stereo unspecified)
7,158 to 160,CCCSC1=NSc2cc(C)cnc2N1Cc1ccc(-c2ccccc2-c2nnn[nH]2)cc1
8,215 to 216,CCc1c(C(=O)OC(C)C)ncc2[nH]c3ccc4ncc(C)nc4c3c12
9,113 to 115,O=C1c2ccccc2-c2ccc(F)cc21
10,58 to 61,FC(F)(F)C(Cc1ccccc1)c1ccccc1 (stereo unspecified)
11,251 to 254,CC(C)(Cc1ccccc1)C(NC(=O)c1ccncc1)Nc1c(Nc2cccnc2)c(=O)c1=O (stereo unspecified)
12,126 to 129,CC(=NC(=Nc1ccccc1)N1CCOCC1)NCc1ccccc1
13,226 to 229,CC(C)(C)c1ccc(C(=O)Nc2cn3nc(-c4cnn(CCO)c4)ccc3n2)cc1
14,206 to 207,O=C1CC(c2cccc(-c3nc(CCl)co3)c2)=Nc2ccc(-n3cccc3)cc2N1
15,143 to 144,Cc1cc(C)cc(COC(=O)C(Cc2c[nH]c3ccccc23)NC(=O)C2CCCCC2)c1 (stereo unspecified)
16,110,COC(=O)CC(Nc1ccccc1)c1ccccc1 (stereo unspecified)
17,180 to 181,CCCCNC(=N)OC(=N)N(CCCC)c1cccc(-c2ccnc3c(C(=O)c4cccs4)cnn23)c1
18,137 to 138,COc1cc(CCNC(=O)c2ccccc2)cc2c1OC(C)(C)C2

# From a melting point compilation (Tetko et al.; mined from patent text by program, amines drawn as free bases though some values may be those of a salt)
